Assay results taken from PubChem BioAssay (NCI).
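Assay format: 96-well plates, 48-hour exposure. TGI marks complete inhibition of growth.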

Key:
Assay in all cases: NCI anticancer screen, dose series, 48 h
[1] = tested on: RXF 393 renal
[2] = tested on: NCI/ADR-RES ovarian
[3] = tested on: UACC-62 melanoma
[4] = tested on: SF-539 CNS
[5] = tested on: UACC-257 melanoma
[6] = tested on: SN12C renal
[7] = tested on: OVCAR-3 ovarian
[8] = tested on: OVCAR-5 ovarian
[9] = tested on: MDA-MB-435
[10] = tested on: A498 renal
[11] = tested on: OVCAR-8 ovarian
[12] = tested on: TK-10 renal
[13] = tested on: CAKI-1 renal
[14] = tested on: MALME-3M melanoma
[15] = tested on: M14 melanoma
[16] = tested on: SNB-75 CNS
[17] = tested on: IGROV1 ovarian
[18] = tested on: COLO 205 colon
[19] = tested on: ACHN renal
[20] = tested on: SNB-19 CNS
[21] = tested on: KM12 colon
[22] = tested on: HOP-92 NSCLC
[23] = tested on: K-562 leukemia
[24] = tested on: NCI-H460 lung
[25] = tested on: SW-620 colon
[26] = tested on: MOLT-4 leukemia
[27] = tested on: DU-145 prostate
[28] = tested on: HCC-2998 colon
[29] = tested on: NCI-H226 lung
[30] = tested on: SF-268 CNS
[31] = tested on: SF-295 CNS
[32] = tested on: SK-MEL-2 melanoma
[33] = tested on: EKVX NSCLC
[34] = tested on: NCI-H522 lung
[35] = tested on: NCI-H23 lung
[36] = tested on: HCT-116 colon
[37] = tested on: T-47D breast
[38] = tested on: RPMI-8226 leukemia
[39] = tested on: HCT-15 colon
[40] = tested on: MDA-MB-231 breast
[41] = tested on: CCRF-CEM leukemia
[42] = tested on: HOP-62 NSCLC
[43] = tested on: A549 NSCLC
[44] = tested on: MDA-N
[45] = tested on: SK-OV-3 ovarian
[46] = tested on: SK-MEL-28 melanoma
[47] = tested on: UO-31 renal
[48] = tested on: MCF7 breast
[49] = tested on: OVCAR-4 ovarian
[50] = tested on: SR leukemia
[51] = tested on: HS 578T breast
[52] = tested on: 786-0 renal
[53] = tested on: HT29 colon
[54] = tested on: U251 CNS
[55] = tested on: SK-MEL-5 melanoma
[56] = tested on: LOX IMVI melanoma

Measured: TGI

CCc1n[nH]c(=O)n1-c1ccc2ccccc2c1
> 100 µM: [1] | [2] | [3] | [4] | [5] | [6] | [7] | [8] | [9] | [10] | [11] | [12] | [13] | [14] | [15] | [16] | [17] | [18] | [19] | [20] | [21] | [22] | [23] | [24] | [25] | [26] | [27] | [28] | [29] | [30] | [31] | [32] | [33] | [34] | [35] | [36] | [37] | [38] | [39] | [40] | [41] | [42] | [43] | [44] | [45] | [46] | [47] | [48] | [49] | [50] | [51] | [52] | [53] | [54] | [55] | [56]
